Assay results as given in article PMC3388883, “Parallel and four-step synthesis of natural-product-inspired scaffolds through modular assembly and divergent cyclization” (Beilstein Journal of Organic Chemistry, 2012).
Values after ≈ are worked out from the molar mass of the structure shown. Read-outs that look alike come from different tables or passages of the source.

Key:
[1] = system: T. brucei brucei GUTat 3.1; assay: In vitro anti-trypanosomal activity (Alamar Blue); type: cell-based, Trypanosoma brucei brucei; settings: for Selectivity Index (SI): (IC50 for MRC-5)/(IC50 for T. brucei brucei); for IC50: Trypanosoma brucei, read-out: IC50 anti-trypanosomal activity; for IC50 / IC50 anti-trypanosomal activity: 72 h
Procedure: With collections of the natural-product-inspired molecules in hand, in vitro anti-trypanosomal activities were evaluated by employing a GUTat 3.1 strain of T. brucei brucei (Table 1) according to the previously reported protocols (Supporting Information File 1). […] Thus, this preliminary assessment supports the idea that the collections of natural-product-inspired scaffolds could have high hit rates against biological screenings, even without having structural information about the biological targets and small-molecule modulators related to the targeted cellular functions. Further screening investigations of the synthetic collections prepared in the four-step process are currently underway in our laboratories.
Assay for in vitro anti-trypanosomal activity against T. brucei species According to a procedure previously used in [Toriizuka et al. Bioorg. Med. Chem. 2008, 16, 10182–10189.], Trypanosoma brucei brucei strain GUTat 3.1 (Glasgow University, Trypanozoon antigenic type 3.1) was generously donated from Dr. Y. Yabu (Nagoya City University). T. brucei brucei GUTat 3.1 strain was cultured in IMDM with 3.024 g/L NaHCO3, 100 μM hypoxanthine, 30 μM thymidine, 40 μM adenosine, 1.0 mM sodium pyruvate, 50 μM L-glutamine, 100 μM 2-mercaptoethanol, 50 U/mL of penicillin, and 50 μg/mL of streptomycin containing 10% heat-inactivated FBS at 37 °C, under 5.0% CO2–95% air, according to the protocol of [Yabu et al.
Southeast Asian J. Trop. Med. Public Health 1998, 29, 591]. In vitro antitrypanosomal activity of the test compounds was evaluated from a dose–response curve utilizing the fluorescent dye, Alamar Blue, according to the method of [Räz et al. Acta Trop. 1997, 68, 139 and Tasdemir et al.
Antimicrob. Agents Chemother. 2006, 50, 1352] with some modifications. Ninety-five microliters of trypanosome suspension ([…] trypanosomes/mL for GUTat 3.1 strain) of bloodstream forms was seeded into a 96-well microplate and 5.0 μL of test compound solution (dissolved in 5.0% dimethylsulfoxide: DMSO) was added. After incubating for 72 h at 37 °C under 5.0% CO2–95% air, 10 μL of Alamar Blue was added to each well. After further incubation for 3–6 h at 37 °C under 5.0% CO2–95% air, the microplate was measured at 528/20 nm excitation wavelength and 590/35 nm emission wavelength with an FLx800 fluorescent plate reader (Bio-Tek Instrument, Inc.Vermont, USA). Data were transferred into a graphic program (Excel) and the 50% inhibitory concentration (IC50) values were determined with fluorescent plate reader software (KC-4, […]
(§1) Cytotoxicity tests on MRC-5 cells
(§2) The human diploid embryonic cell line, MRC-5, was a generous gift from Dr. L. Maes (Tibotec NV, Mechelen, Belgium). Cytotoxicity of the test compound was measured by the colorimetric MTT assay [Mossman, T. J. Immunol. Methods 1983, 65, 55 and Otoguro, K. et al. ATLA:Alternatives to Laboratory Animals 1991, 19, 352] in 96-well microplates. In brief, 100 μL of MRC-5 cell suspension was added to 96-well microplates at 1 × 10^3 cells/well and the cells were cultured for 24 h. Then, 90 μL of standard culture medium (MEM + 10% FCS) with or without 10 μL of test compound solution that was dissolved in 25% ethanol or 5% DMSO was added to each well.
(§3) Further incubation was conducted at 37 °C under 5% CO2–95% air for 7 days and then 20 μL of MTT–PBS solution (5 mg/mL) was added to each well. The microplate was incubated at 37 °C for 4 h under 5% CO2–95% air. Then, the incubation medium was aspirated and 100 μL of DMSO was added to solubilize the MTT formazan product. After mixing, absorbance at 540 nm was measured with iEMS microplate reader MF. The IC50 value was estimated from the dose–response curve.

[2] = Cytotoxicity on MRC-5 cells (MTT assay); type: cell-based; settings: human, MRC-5 cells (human diploid embryonic cell line)
Procedure: as §1, §2, §3

[3] = T. brucei brucei GUTat 3.1 strain, 2.0–2.5 × 10^4 trypanosomes/mL
[4] = T. brucei brucei GUTat 3.1 strain

| Compound | Selectivity Index (SI) [1] | IC50 [1, 3] [µg/mL] | IC50 at 7 days [2] [µg/mL] | antitrypanosomal activity (in words) [1, 4] | IC50 [1] [µg/mL] | IC50 anti-trypanosomal activity [1, 3] [µg/mL] |
| --- | --- | --- | --- | --- | --- | --- |
| COc1ccc(CN2C(=O)[C@@]3(C)CCCN4C(=O)[C@]5(C(C)=O)O[C@@]43[C@@]3(c4ccccc4N(S(=O)(=O)c4ccccc4[N+](=O)[O-])[C@H]53)[C@@H]2C(=O)NC(C)(C)C)cc1 (racemic) [25a] | 4.1 | 5.9 (≈ 7.64 µM) | 24.5 (≈ 31.7 µM) |  |  |  |
| COc1ccc(CN2C(=O)[C@@]3(C)CCCN4C(=O)[C@]5(C(C)=O)O[C@@]43[C@@]3(c4ccccc4N(S(=O)(=O)c4ccccc4[N+](=O)[O-])[C@H]53)[C@H]2C(=O)NC(C)(C)C)cc1 (racemic) [25b] |  | > 12.5 |  | negligible |  |  |
| CC(=O)[C@@]12O[C@@]34N(CCC[C@]3(C)C(=O)N([C@H](C(=O)NC(C)(C)C)c3cn(S(=O)(=O)c5ccccc5[N+](=O)[O-])c5ccccc35)C[C@]43c4ccccc4N(S(=O)(=O)c4ccccc4[N+](=O)[O-])[C@H]13)C2=O [30b] |  |  |  | negligible | > 12.5 |  |
| CC(=O)C12CC3CN(C(C(=O)NC(C)(C)C)c4cn(S(=O)(=O)c5ccccc5[N+](=O)[O-])c5ccccc45)C(=O)C4(C)CCCN(C1=O)C34O2 (stereo not shown) [39a] |  |  |  | negligible activities |  | >12.5 |
| CC(=O)C12CC3CN(C(C(=O)NC(C)(C)C)c4cn(S(=O)(=O)c5ccccc5[N+](=O)[O-])c5ccccc45)C(=O)C4(C)CCCN(C1=O)C34O2 (stereo not shown) [39b] | 8.7 |  | 4.02 (≈ 5.81 µM) |  |  | 0.46 (≈ 0.665 µM) |
| CC(=O)[C@@]12C[C@@H]3CN([C@H](C(=O)NC(C)(C)C)c4c[nH]c5ccccc45)C(=O)[C@@]4(C)CCCN(C1=O)[C@@]34O2 [39c] |  | > 12.5 |  | substantial loss of the activities |  |  |
| CC(=O)[C@]12O[C@]34[C@@H](CN([C@H](C(=O)NC(C)(C)C)c5cn(S(=O)(=O)c6ccccc6[N+](=O)[O-])c6ccccc56)C(=O)[C@@]3(C)CCCN4C1=O)C2(C)C [41b] | 5.9 | 5.89 (≈ 8.18 µM) | 34.6 (≈ 48.1 µM) |  |  |  |
| CC(=O)[C@@]12O[C@@]34N(CCC[C@]3(C)N([C@@H](CC(C)C)C(=O)NC(C)(C)C)C(=O)[C@]43c4ccccc4N(S(=O)(=O)c4ccccc4[N+](=O)[O-])[C@H]13)C2=O [63a] |  |  |  | insignificant activities |  |  |
| CC(=O)C12OC34N(CCCC3(C)N(C(CC(C)C)C(=O)NC(C)(C)C)C(=O)C43c4ccccc4N(S(=O)(=O)c4ccccc4[N+](=O)[O-])C13)C2=O (stereo not shown) [63b] |  |  |  | insignificant activities |  |  |
| NCCCC(N)(C(=O)O)C(F)F (stereo not shown) [eflornithine, reference compound] | >44 | 2.27 (≈ 12.5 µM) | > 100 |  |  |  |
| N=C(N)c1ccc(OCCCCCOc2ccc(C(=N)N)cc2)cc1 [pentamidine, reference compound] | 3600 | 0.00158 (≈ 0.00464 µM) | 5.71 (≈ 16.8 µM) |  |  |  |
| Cc1ccc(C(=O)Nc2ccc(S(=O)(=O)O)c3cc(S(=O)(=O)O)cc(S(=O)(=O)O)c23)cc1NC(=O)c1cccc(NC(=O)Nc2cccc(C(=O)Nc3cc(C(=O)Nc4ccc(S(=O)(=O)O)c5cc(S(=O)(=O)O)cc(S(=O)(=O)O)c45)ccc3C)c2)c1 [suramin, reference compound] | >63 |  | > 100 |  | 1.58 (≈ 1.22 µM) |  |
